In EP4772500A1, “NOVEL ISOXAZOLE COMPOUND AS TM4SF5-SPECIFIC INHIBITOR AND USE THEREOF” (Seoul National University R&DB Foundation, priority 2023, dated 2025):

Columns and labels:
[1] = test system: TM4SF5-expressing cells (SNU449T7); assay: Subcutaneous xenograft model of TM4SF5-expressing liver cancer cell line; format: in vivo, BALB/c-Nude mice; details: for tumor volume / liver cancer formation inhibitory effect: 5 mg/kg IP every 3 days, 8 times; for tumor volume: vs vehicle (FIG. 11c); for liver cancer formation inhibitory effect: images of recovered cancer tissues (FIG. 11b); for expressions of factors related to fibrosis, inflammation-related cytokines/chemokines (CCL2, CCL5, or CCL20), and AFP: cancer tissues vs vehicle (FIG. 11e); for phosphorylation of FAK, STAT3, c-Src, Akt and p27: liver cancer tissue extracts, three days after last injection (FIG. 11d)
Description: The next day, the cells were detached by treating with a T/E (Trypsin/EDTA) solution and centrifuged at 150x g for 3 minutes to obtain a pellet. Thereafter, the supernatant was removed, and the pellet was prepared by resuspension in phosphate buffered saline (PBS). For the generation of liver cancer, 10^7 cells/100 µl were injected once subcutaneously into the right thigh area of 8-week-old male BALB/c-Nude mice. At this time, the animals were anesthetized by inhalation with […] and injected. From the 7th day after the cell injection, drugs ST-2-001, ST-3-006, and ST-3-011 were each intraperitoneally injected at 5 mg/kg of body weight for a total of 8 times every 3 days. The body weight of the animals was measured every week from the day of cell injection, and the tumor volume was measured every 3 days from the 7th day after the cell injection. The tumor volume was calculated as (length×width×width)/2 (mm^3) by measuring the length and width of the tumor. Finally, on the 31st day after the cell injection, the animals were sacrificed by a standard method, and liver tissues were obtained to analyze the liver cancer tissues.
Eight-week-old male BALB/c-Nude mice (n=8, Orient, Seongnam, Republic of Korea) were allowed free access to a normal diet, and TM4SF5-non-expressing cells (SNU449Cp) and TM4SF5-expressing cells (SNU449T7) were injected once subcutaneously at a dose of 10^7 cells per mouse. Starting from the 7th day after the cell injection, drug ST-2-001, ST-3-006, or ST-3-011 was intraperitoneally injected at 5 mg/kg of body weight every 3 days for a total of 8 times. Body weight and tumor volume were measured every week, and on the 31st day after the cell injection, the mice were anesthetized by a standard method, liver tissues were obtained, and the size of the liver cancer tissues was photographed. Thereafter, the tissues were randomly divided into several sets and analyzed by immunohistochemistry, Western blot, qRT-PCR, etc.

TM4SF5 and SLAMF7 = biological target: T1, TM4SF5 and SLAMF7 (Homo sapiens, UniProt O14894); assay: Streptavidin pulldown: binding between TM4SF5 and SLAMF7; format: cell-based
T1 construct: expressed in transfected cells; host or cells: SNU761 human hepatocellular carcinoma cells
T1 sequence (O14894 1-197): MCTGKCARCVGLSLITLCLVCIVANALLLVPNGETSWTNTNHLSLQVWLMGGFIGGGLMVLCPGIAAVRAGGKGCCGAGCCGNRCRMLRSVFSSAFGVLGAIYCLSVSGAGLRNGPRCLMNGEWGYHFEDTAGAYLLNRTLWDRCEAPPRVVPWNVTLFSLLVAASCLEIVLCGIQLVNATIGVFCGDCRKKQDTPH
Description: Cells were cultured to ~60% density in a cell incubator at 37°C and 5% CO2, and then transfected using PEI and cultured in a cell incubator at 37°C for two days. After cultivation, cell extracts were obtained by the method described above. After precipitating a desired protein from the cell extracts using an immunoprecipitation method, the binding proteins were identified by the Western blot technique described above. Specifically, cells cultured in a 100 mm cell culture dish for two days were washed twice with PBS, and protease inhibitor cocktails (GenDepot, USA) were added to 500 µl of immunoprecipitation lysis buffer (0.5% Triton X-100 or Brij 58, 40 mM HEPES, 150 mM NaCl, 1 mM EDTA, pH 7.4), followed by treatment at 4°C for 15 minutes. After collecting the cells, centrifugation was performed at 12,000x g at 4°C for 15 minutes, and the supernatant was transferred to a new microcentrifuge tube to obtain a cell extract. Proteins therein were quantified using a BCA reagent (Thermo Scientifics, USA). An electrophoresis sample was prepared by adding 4x laemmli sample buffer to a portion of the quantified sample and boiling at 100°C for 5 minutes. For immunoprecipitation, Streptavidin Agarose Resin (Thermo Fisher Scientific) or anti-HA antibody-coated Sepharose beads were added in proportion to the quantified protein amount, followed by rotation at 4°C for 4 hours, and then centrifugation was performed at 7,000x g at 4°C for 5 minutes and the supernatant was discarded. […] (f) After treating NK92-EV or NK92-TM4SF5 cells with DMSO or drugs ST-2-001 (1 nM), ST-3-005 (10 nM or 1 µM), ST-5-001, or ST-5-002 (100 nM or 1 µM) for 24 hours, the expression of SLAMF7 expressed on the cell surface was analyzed through immunostaining using flow cytometry. The expression level of SLAMF7 was confirmed by adding a SLAMF7 antibody to bind with SLAMF7 and then measuring the fluorescence linked to the SLAMF7 antibody using flow cytometry. […]

[2] = SNU761 expressing TM4SF5-Strep and FLAG-SLAMF7, 24 hours, brij58 lysis (FIG. 15e-f)

binding between TM4SF5 and SLAMF7 (TM4SF5 and SLAMF7; 2.5 µM, 24 hours, SNU761 (FIG. 13j)) | Structure (SMILES) | tumor volume [1] | liver cancer formation inhibitory effect [1] | expressions of factors related to fibrosis, inflammation-related cytokines/chemokines (CCL2, CCL5, or CCL20), and AFP [1] | phosphorylation of FAK, STAT3, c-Src, Akt and p27 [1] | binding between TM4SF5 and SLAMF7 (TM4SF5 and SLAMF7; [2])
 | COc1ccc(-c2cc(-c3ccc(NC(C)=O)cc3)no2)cc1 [ST-2-001, N-(4-(5-(4-methoxyphenyl)isoxazole-3-yl)phenyl)acetamide] | statistically significantly inhibited | the greatest | decreased | significantly inhibited | 
 | CC(=O)Nc1ccc(-c2cc(-c3ccc(F)cc3)on2)cc1 [ST-3-006, N-(4-(5-(4-fluorophenyl)isoxazole-3-yl)phenyl)acetamide] | statistically significantly inhibited | relatively less than those of ST-2-001 | decreased | significantly inhibited | 
 | COc1cccc(-c2cc(-c3ccc(NC(C)=O)cc3)no2)c1 [ST-3-001, N-(4-(5-(3-methoxyphenyl)isoxazole-3-yl)phenyl)acetamide] |  |  |  |  | did not decrease but rather showed an increasing trend
 | COc1ccc(-c2cc(-c3cccc(NC(C)=O)c3)no2)cc1 [ST-3-011, N-(3-(5-(4-methoxyphenyl)isoxazole-3-yl)phenyl)acetamide] | statistically significantly inhibited | relatively less than those of ST-2-001 | decreased | significantly inhibited | 
 | Cc1ccc(C(=O)Nc2ccc(-c3cc(-c4ccc(O)cc4)no3)cc2)cc1 [ST-5-002, N-(4-(3-(4-hydroxyphenyl)isoxazole-5-yl)phenyl)-4-methylbenzamide] |  |  |  |  | decreased
inhibited | CC(=O)Nc1ccc(-c2cc(-c3ccc(O)cc3)no2)cc1 [ST-5-001, N-(4-(3-(4-hydroxyphenyl)isoxazole-5-yl)phenyl)acetamide] |  |  |  |  | 
